Our source for the TGI, GI50 and outcome values is PubChem BioAssay (NCI).

The structures appear in SMILES notation.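 1) Cells in 96-well plates. 2) Compound, 48 h, 5 concentrations. 3) Linear interpolation between surrounding doses. 4) Unreached endpoint = highest concentration. GI50: concentration for 50% inhibition of growth. At the TGI there is no net growth.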 Calls of active or inactive are those of the source. No stated cut-off is given here; in the data, active means GI50 below about 0.43 µM; inactive means the rest.

Test systems include DMS 273 small cell lung; HOP-18 NSCLC; KM20L2 colon; LXFL 529 NSCLC; SNB-78 CNS; M19-MEL melanoma.
What all share (assay): DTP human tumour cell line panel, 48 h

As to `S=c1nc(-c2cccnc2)[nH][nH]1`, the TGI with DMS 273 small cell lung, with HOP-18 NSCLC, in the experiment on KM20L2 colon, in the experiment with LXFL 529 NSCLC and in the experiment with SNB-78 CNS was greater than 100 µM throughout.

Consider `C=C(C=O)CCCC(C)[C@@H]1CCC23CC12CCC1[C@@]2(C)CCC(OC(C)=O)C(C)(C)C2CC(OC2OC(COC(C)=O)C(O)C(O)C2O)[C@]13C` (stereo not given in full), for which the TGI in the experiment with DMS 273 small cell lung was 13.3 µM; with HOP-18 NSCLC it was 16.1 µM; in the experiment with KM20L2 colon, 12.8 µM; with LXFL 529 NSCLC, 8.44 µM; in the experiment with SNB-78 CNS it was 3.4 µM.

As to `C=C=C(C(=O)OC)S(=O)c1ccc([N+](=O)[O-])cc1[N+](=O)[O-]` (stereo not given), the TGI in the experiment on DMS 273 small cell lung stood at 64.1 µM; in the experiment with HOP-18 NSCLC, 98.7 µM; with KM20L2 colon it was 63.8 µM; in the experiment on LXFL 529 NSCLC, 38 µM; in the experiment with M19-MEL melanoma, 62 µM.

On to `Cc1nn(-c2ccccc2)c(-c2ccccc2[N+](=O)[O-])c1CC#N`, for which the concentration for total growth inhibition (TGI) in the experiment with DMS 273 small cell lung, in the experiment with KM20L2 colon, in the experiment on LXFL 529 NSCLC, in the experiment with M19-MEL melanoma and with SNB-78 CNS was greater than 100 µM in each case.

In the case of `CCOC(=O)c1cc(/C=C/C(C)=C/C(=O)OC)n(C)c1C`, the total growth inhibition concentration (TGI) in the experiment with DMS 273 small cell lung, with KM20L2 colon, with LXFL 529 NSCLC, in the experiment on M19-MEL melanoma and in the experiment on SNB-78 CNS was greater than 100 µM in each case.

In the case of `COc1cc(Br)c(C=Nc2cccc3ccc(OS(=O)(=O)c4cccc([N+](=O)[O-])c4)cc23)cc1OC`, the total growth inhibition concentration (TGI) with HOP-18 NSCLC is greater than 100 µM; in the experiment with LXFL 529 NSCLC it was greater than 100 µM; with M19-MEL melanoma, greater than 100 µM; in the experiment with SNB-78 CNS it was 72.9 µM.

Turning to `COc1ccc(/C=C2\C(=O)N(C(=O)Cc3ccccc3)N=C2C)cc1OC`, the TGI in the experiment on DMS 273 small cell lung, in the experiment on HOP-18 NSCLC, with M19-MEL melanoma and with SNB-78 CNS was greater than 100 µM in each case.

On to `O=C(OC[C@H]1O[C@@H](OC(=O)c2cc(O)c(O)c(O)c2)[C@H](OC(=O)c2cc(O)c(O)c(O)c2)[C@@H](OC(=O)c2cc(O)c(O)c(O)c2)[C@@H]1OC(=O)c1cc(O)c(O)c(O)c1)c1cc(O)c(O)c(O)c1`, for which the TGI in the experiment with DMS 273 small cell lung is 7.07 µM; with HOP-18 NSCLC it was greater than 100 µM; in the experiment on KM20L2 colon, greater than 100 µM; in the experiment with LXFL 529 NSCLC it was greater than 100 µM; in the experiment on M19-MEL melanoma, 83.2 µM; in the experiment with SNB-78 CNS, 80.3 µM.

Take `CCOC(=O)CC1NC(=O)CS1` (stereo not given): the TGI in the experiment on DMS 273 small cell lung, in the experiment with HOP-18 NSCLC, in the experiment on KM20L2 colon, in the experiment with LXFL 529 NSCLC, in the experiment with M19-MEL melanoma and in the experiment with SNB-78 CNS was greater than 100 µM throughout.

On to `CCOC(=O)[C@H]1Nc2ccc(OC)cc2C2c3ccccc3CC21` (stereo not given in full), for which the total growth inhibition concentration (TGI) in the experiment on DMS 273 small cell lung, with KM20L2 colon, with LXFL 529 NSCLC, in the experiment with M19-MEL melanoma and in the experiment on SNB-78 CNS was greater than 100 µM throughout.

For the compound `BrC1(Br)C2/C=C\CCCCC21` (stereo not given), the TGI with DMS 273 small cell lung, in the experiment with HOP-18 NSCLC, in the experiment on KM20L2 colon, with LXFL 529 NSCLC, in the experiment with M19-MEL melanoma and with SNB-78 CNS was greater than 100 µM throughout.

As to `COC(=O)c1c(-c2ccccc2)sc(-c2cccc3ccccc23)c1C(=O)OC`, the TGI in the experiment with DMS 273 small cell lung, in the experiment with HOP-18 NSCLC, in the experiment with KM20L2 colon, with LXFL 529 NSCLC, in the experiment with M19-MEL melanoma and with SNB-78 CNS was greater than 100 µM in each case.

On to `O=[N+]([O-])c1ccc2c(c1)[O][Sn]([I])([I])[O]2`, for which the GI50 in the experiment with DMS 273 small cell lung was 71.1 µM; with KM20L2 colon, greater than 100 µM; in the experiment with M19-MEL melanoma, 85.3 µM; in the experiment with SNB-78 CNS, greater than 100 µM. The TGI in the experiment with DMS 273 small cell lung, with KM20L2 colon, in the experiment on M19-MEL melanoma and in the experiment on SNB-78 CNS was greater than 100 µM throughout.

Turning to `CCOC(=O)COS(=O)(=O)C(F)(F)F`, the TGI with DMS 273 small cell lung is 36.7 µM; in the experiment on HOP-18 NSCLC, greater than 100 µM; with KM20L2 colon, greater than 100 µM; in the experiment with LXFL 529 NSCLC it was greater than 100 µM; in the experiment with M19-MEL melanoma, greater than 100 µM; in the experiment with SNB-78 CNS it was greater than 100 µM.

As to `O=C1CCC(O)=C1O`, the TGI in the experiment with DMS 273 small cell lung, with HOP-18 NSCLC, in the experiment with KM20L2 colon, in the experiment with LXFL 529 NSCLC and in the experiment on M19-MEL melanoma was greater than 100 µM each time.

Take `OC12CC/C(=N/OCc3ccccc3)CC1c1ccccc12` (stereo not given): the TGI in the experiment on DMS 273 small cell lung, in the experiment on HOP-18 NSCLC, in the experiment on KM20L2 colon, in the experiment with LXFL 529 NSCLC, in the experiment with M19-MEL melanoma and with SNB-78 CNS was greater than 100 µM in each case.

With `COC(=O)c1nc(N)[nH]c(=O)c1CCCCCc1c(C(=O)OC)nc(N)[nH]c1=O`, the TGI in the experiment with DMS 273 small cell lung, with HOP-18 NSCLC, in the experiment on KM20L2 colon, in the experiment with LXFL 529 NSCLC, in the experiment on M19-MEL melanoma and in the experiment with SNB-78 CNS was greater than 50 µM each time.

For the compound `Cc1c2cc[n+](C)cc2c(C)c2c1[nH]c1ccc(O)c(OCC(F)(F)F)c12`, the concentration for total growth inhibition (TGI) in the experiment with DMS 273 small cell lung was 8.79 µM; in the experiment with KM20L2 colon, greater than 55 µM; with LXFL 529 NSCLC, 8.16 µM; in the experiment on M19-MEL melanoma, 11.8 µM; in the experiment on SNB-78 CNS, 4.96 µM.

As for `Nc1nc(CCC(=O)Nc2cccc(C(F)(F)F)c2)cc(-c2ccc3ccccc3c2)n1`, the total growth inhibition concentration (TGI) in the experiment with DMS 273 small cell lung, with HOP-18 NSCLC, in the experiment on KM20L2 colon, in the experiment on LXFL 529 NSCLC, in the experiment on M19-MEL melanoma and in the experiment with SNB-78 CNS was greater than 100 µM each time.

For the compound `O=c1[nH]c(=O)n(C2OC3COC2C3O)cc1F` (stereo not given), the TGI in the experiment on DMS 273 small cell lung, with HOP-18 NSCLC, in the experiment with KM20L2 colon, in the experiment on LXFL 529 NSCLC and in the experiment with SNB-78 CNS was greater than 100 µM throughout.

`O=[N+]([O-])c1ccc2c(c1)[O][Sn][O]2`: the GI50 was 18.8 µg/mL with DMS 273 small cell lung, 36.9 µg/mL with M19-MEL melanoma and 124 µg/mL with SNB-78 CNS. Further, the TGI in the experiment with DMS 273 small cell lung, with M19-MEL melanoma and with SNB-78 CNS was greater than 150 µg/mL each time. Moreover, the result in the experiment on HOP-18 NSCLC, in the experiment with KM20L2 colon and with LXFL 529 NSCLC was inactive.

Take `N.N.N.N.N.N.O=N[O-].[Br-].[Co+3].[Co+3].[OH3+].[OH3+]`: the results for the GI50 in the experiment on HOP-18 NSCLC, in the experiment with LXFL 529 NSCLC and in the experiment on SNB-78 CNS were 51.7 µM, greater than 100 µM and greater than 100 µM, respectively. Besides, the TGI in the experiment on HOP-18 NSCLC, in the experiment with LXFL 529 NSCLC and with SNB-78 CNS was greater than 100 µM throughout.

As to `CN=C1SC(=Nc2ccc(N(C)C)cc2)N1C`, the concentration for total growth inhibition (TGI) in the experiment on DMS 273 small cell lung, in the experiment with HOP-18 NSCLC, in the experiment with LXFL 529 NSCLC, with M19-MEL melanoma and with SNB-78 CNS was greater than 100 µM in each case.

As for `CCOc1ccccc1NC(=O)CCc1nc(=S)[nH][nH]1`, the TGI in the experiment with HOP-18 NSCLC, with LXFL 529 NSCLC, in the experiment on M19-MEL melanoma and in the experiment with SNB-78 CNS was greater than 100 µM throughout.

`COc1ccc2c(c1)[n+]([O-])c(/C(C)=N/NC(=O)CC#N)c[n+]2[O-]`: the TGI in the experiment with DMS 273 small cell lung, in the experiment on HOP-18 NSCLC, in the experiment on KM20L2 colon, with LXFL 529 NSCLC, in the experiment with M19-MEL melanoma and with SNB-78 CNS was greater than 100 µM in each case.

In the case of `Cc1cc2c(=O)c3ccccc3[nH]c2c(C(=O)O)c1C`, the TGI with DMS 273 small cell lung, in the experiment on KM20L2 colon, in the experiment with LXFL 529 NSCLC, with M19-MEL melanoma and in the experiment with SNB-78 CNS was greater than 100 µM each time.

As to `Cc1c(Cl)cccc1NC(=O)CC1C(=O)Nc2ccccc2S1(=O)=O` (stereo not given), the concentration for total growth inhibition (TGI) is 21.4 µM in the experiment on DMS 273 small cell lung; 44.9 µM in the experiment with KM20L2 colon; 29 µM with LXFL 529 NSCLC; 55.3 µM in the experiment with M19-MEL melanoma; 45.5 µM with SNB-78 CNS.

With `CCN(CC)c1ccc2c(c1)Nc1cc(=C(C#N)C#N)c3ccccc3c1=N2`, the TGI in the experiment on DMS 273 small cell lung, in the experiment with HOP-18 NSCLC, with KM20L2 colon, in the experiment with LXFL 529 NSCLC, with M19-MEL melanoma and in the experiment on SNB-78 CNS was greater than 100 µM in each case.

Take `N#CC(NNC(=O)c1ccccc1O)c1cccc(O)c1` (stereo not given): the concentration for total growth inhibition (TGI) with DMS 273 small cell lung, with HOP-18 NSCLC, with KM20L2 colon, with LXFL 529 NSCLC and with SNB-78 CNS was greater than 100 µM in each case.

As to `COC(=O)C1=C(CS(=O)c2ccccc2[N+](=O)[O-])ON(C)C1c1ccccc1` (stereo not given), the total growth inhibition concentration (TGI) was greater than 100 µM in the experiment with DMS 273 small cell lung; greater than 100 µM in the experiment on HOP-18 NSCLC; 85.1 µM in the experiment on KM20L2 colon; greater than 100 µM in the experiment on LXFL 529 NSCLC; greater than 100 µM in the experiment with M19-MEL melanoma; greater than 100 µM in the experiment with SNB-78 CNS.

Consider `CC(=O)OC1[C@H]2c3cc4c(cc3CN3CCC(=C[C@@H]1O)C23)OCO4` (stereo not given in full), for which the concentration for total growth inhibition (TGI) with DMS 273 small cell lung, in the experiment on KM20L2 colon, with LXFL 529 NSCLC, in the experiment on M19-MEL melanoma and with SNB-78 CNS was greater than 100 µM throughout.

In the case of `O=c1ccc(=O)c2c(=O)c3ccccc3c(=O)c1=2`, the TGI is greater than 100 µM in the experiment on DMS 273 small cell lung, greater than 100 µM in the experiment on LXFL 529 NSCLC, 36.8 µM in the experiment on M19-MEL melanoma and greater than 100 µM with SNB-78 CNS.

As usually defined, the TGI is the concentration at which net growth stops. Low readings indicate greater sensitivity of the cells, high ones lower sensitivity of the cells. Usually GI50 stands for the concentration that inhibits growth by half.
